From US20060155119A1, “Ascomycin crystalline forms and preparation thereof” (priority 2004, published 2006) come the findings set out here.

A short description of the data set: Storing crystalline Ascomycin Form A at 150° C. for 1 hour, solid form checked by PXRD/DSC. The conditions noted are these: solid sample, initial PXRD form A, remark wraps over r7-r8: 'Remained crystalline'. The class given is physicochemical. The method, then:
The crystalline forms of ascomycin, produced by the methods of the present invention can be analyzed by Powder X-ray diffraction (PXRD) was performed on an X-Ray powder diffractometer, ARL, θ-θ goniometer, Cu-tube, solid state detector with Peltier cooling. The sample holder was a round standard aluminum sample holder with round zero background. Scanning parameters: Range: 2-40 deg.2θ, Continuous Scan, Rate: 3 deg./min.
Ascomycin crystalline forms can also be analyzed by thermal analysis, which can be carried out by […] scanning calorimetry (DSC) and by thermogravimetric analysis (TGA). DSC thermograms can be obtained on a DSC822^e Mettler Toledo instrument (Advanced Instruments, San Juan, Puerto Rico). Sample weight: 3-5 mg; Heating rate: 10° C./min; Number of holes in the crucible: 3. TGA thermograms can be obtained on a Mettler TGA/SDTA 851 instrument (Advanced Instruments, San Juan, Puerto Rico) using a standard Allumina pan. Sample weight: 7-15 mg; Heating rate: 10° C./min.
Starting from Form A having the properties listed in Table 1, incubation at 150° C. for 1 hour produced Ascomycin Form C.

As for `CC[C@@H]1/C=C(\C)C[C@H](C)C[C@H](OC)[C@H]2O[C@@](O)(C(=O)C(=O)N3CCCC[C@H]3C(=O)O[C@H](/C(C)=C/[C@@H]3CC[C@@H](O)[C@H](OC)C3)[C@H](C)[C@@H](O)CC1=O)[C@H](C)C[C@@H]2OC` [Form A, Ascomycin], the “remarks after storing at 150° C. for 1 hour” value is reported as “Remained”.
